The text below walks through data of patent publication US20250268877A1 (BIOGEN MA INC., priority 2020, published 2025).

One data set has as its target IRAK4 (Homo sapiens (Human), UniProt Q9NWZ3). The experiment in a line: IRAK4 2-hour 1 mM ATP Biochemical Assay (MesoScale Detection format). The settings on record: 100 pM IRAK4, read-out: IRAK4 IC50.
The target in a further data set is MDR1 (Homo sapiens (Human), UniProt P08183). The experiment in a line: MDR1-MDCK assay (apparent permeability, efflux ratio). It is filed as in vitro ADME. Conditions: human, MDCK-MDR1, 1 μM, read-out: MDR1-MDCK_Efflux Ratio.
Sequence of MDR1 (P08183 whole entry): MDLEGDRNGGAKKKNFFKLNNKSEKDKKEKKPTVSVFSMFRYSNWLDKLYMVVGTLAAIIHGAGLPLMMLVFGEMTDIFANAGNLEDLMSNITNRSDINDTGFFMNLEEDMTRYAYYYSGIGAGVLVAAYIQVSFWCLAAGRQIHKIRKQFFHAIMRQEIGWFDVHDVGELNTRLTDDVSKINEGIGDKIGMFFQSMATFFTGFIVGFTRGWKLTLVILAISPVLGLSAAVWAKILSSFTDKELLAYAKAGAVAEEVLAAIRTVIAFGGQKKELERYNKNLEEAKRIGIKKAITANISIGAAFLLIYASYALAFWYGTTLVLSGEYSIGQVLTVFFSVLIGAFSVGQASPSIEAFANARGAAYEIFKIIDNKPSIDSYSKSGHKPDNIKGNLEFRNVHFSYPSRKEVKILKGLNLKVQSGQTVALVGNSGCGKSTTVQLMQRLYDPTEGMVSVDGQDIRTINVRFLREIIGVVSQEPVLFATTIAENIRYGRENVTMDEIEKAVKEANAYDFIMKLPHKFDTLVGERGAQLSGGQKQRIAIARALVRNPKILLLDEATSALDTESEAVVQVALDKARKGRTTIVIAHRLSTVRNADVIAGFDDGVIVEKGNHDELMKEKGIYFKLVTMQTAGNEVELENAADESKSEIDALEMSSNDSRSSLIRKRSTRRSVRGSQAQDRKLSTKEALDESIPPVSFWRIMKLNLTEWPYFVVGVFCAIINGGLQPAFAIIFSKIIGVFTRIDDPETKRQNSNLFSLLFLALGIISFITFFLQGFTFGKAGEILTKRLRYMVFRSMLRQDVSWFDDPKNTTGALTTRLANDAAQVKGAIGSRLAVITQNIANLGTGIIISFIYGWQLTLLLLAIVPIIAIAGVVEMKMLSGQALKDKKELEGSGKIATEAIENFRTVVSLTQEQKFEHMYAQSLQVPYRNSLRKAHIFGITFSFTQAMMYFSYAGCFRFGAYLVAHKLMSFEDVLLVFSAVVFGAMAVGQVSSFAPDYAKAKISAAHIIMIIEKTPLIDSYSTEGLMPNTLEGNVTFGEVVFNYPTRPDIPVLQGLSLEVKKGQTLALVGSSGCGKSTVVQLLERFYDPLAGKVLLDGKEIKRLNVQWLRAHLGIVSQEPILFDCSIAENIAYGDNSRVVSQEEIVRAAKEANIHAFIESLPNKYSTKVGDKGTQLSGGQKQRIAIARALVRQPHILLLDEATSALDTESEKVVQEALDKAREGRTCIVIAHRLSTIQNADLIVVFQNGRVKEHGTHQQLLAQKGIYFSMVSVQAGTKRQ

Sequence of IRAK4 (Q9NWZ3 whole entry): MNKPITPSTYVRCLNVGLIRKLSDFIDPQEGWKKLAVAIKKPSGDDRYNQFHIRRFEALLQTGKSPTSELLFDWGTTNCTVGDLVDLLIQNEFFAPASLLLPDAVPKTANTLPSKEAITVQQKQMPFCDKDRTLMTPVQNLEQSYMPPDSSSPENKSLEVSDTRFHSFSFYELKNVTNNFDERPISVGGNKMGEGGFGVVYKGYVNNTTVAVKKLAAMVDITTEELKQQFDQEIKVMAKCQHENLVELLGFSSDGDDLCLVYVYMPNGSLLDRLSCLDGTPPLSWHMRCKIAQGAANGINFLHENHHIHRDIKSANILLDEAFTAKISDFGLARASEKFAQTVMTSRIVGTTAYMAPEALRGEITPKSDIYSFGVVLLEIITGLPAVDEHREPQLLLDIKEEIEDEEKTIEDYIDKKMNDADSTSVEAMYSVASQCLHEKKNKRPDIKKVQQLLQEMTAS
Method for IRAK4: The 2-hour 1 mM ATP Biochemical Assay employed a MesoScale Detection (MSD) format.
The activity was quenched with 11 μl of 70 mM EDTA, pH 8.
To detect the phosphorylated biotinylated peptide substrate, 30 μl of the quenched reaction mixture was added to equivalent wells of a 384 well streptavidin coated MesoScale plate (Meso Scale Discovery #L21SA-1). After a 1 hour incubation of the plate for 1 hour at room temperature with gentle mixing, the plate wells were washed 3 times with 50 mM Tris, pH 7.5, 150 mM NaCl, 0.02% Tween-20.
A 25 μl volume of 1:500 anti-P-Threonine Rabbit polyclonal Antibody plus 1:500 Goat-anti-Rabbit Sulfo Tag Antibody (Meso Scale Discovery R^32AB-1) in 50 mM Tris, pH 7.5, 150 mM NaCl, 0.02% Tween-20 plus 2% BSA was then added to each well. After a 1-hour incubation of the plate for 1 hour at room temperature with gentle mixing, the plate wells were washed, 3 times with 50 mM Tris, pH 7.5, 150 mM NaCl, 0.02% Tween-20.

Usually IC50 stands for the concentration that inhibits the measured activity by half. Take `CC(C)Oc1cc2nn(C34COC(CF)(C3)C4)cc2cc1C(=O)Nc1cccn([C@H]2C[C@@H]2C)c1=O` (single isomer, unassigned) [Example 70]: the IC50 at IRAK4 is 2.3 nM. The efflux ratio at 120 min, 1 μM at MDR1 worked out at 1.59.
Regarding `CC(C)Oc1nc2nn(C34COC(C)(C3)C4)cc2cc1C(=O)Nc1cccn(C2(C)CC2)c1=O` [Example 18, 6-Isopropoxy-2-(1-methyl-2-oxabicyclo[2.1.1]hexan-4-yl)-N-(1-(1-methylcyclopropyl)-2-oxo-1,2-dihydropyridin-3-yl)-2H-pyrazolo[3,4-b]pyridine-5-carboxamide], on IRAK4, the IC50 was 4.3 nM. The efflux ratio at 120 min, 1 μM on MDR1 is 1.31.
In the case of `CC(C)Oc1nc2nn(C34COC(CF)(C3)C4)cc2cc1C(=O)Nc1cccn(C2(C)CC2)c1=O` [Example 19, 2-(1-(Fluoromethyl)-2-oxabicyclo[2.1.1]hexan-4-yl)-6-isopropoxy-N-(1-(1-methylcyclopropyl)-2-oxo-1,2-dihydropyridin-3-yl)-2H-pyrazolo[3,4-b]pyridine-5-carboxamide], the IC50 on IRAK4 amounted to 6.6 nM. The efflux ratio at 120 min, 1 μM on MDR1 worked out at 1.91.
With `CC[C@@H](C)Oc1nc2nn(C34COC(CF)(C3)C4)cc2cc1C(=O)Nc1cccn(C2CC2)c1=O` [Example 20, (R)-6-(sec-butoxy)-N-(1-cyclopropyl-2-oxo-1,2-dihydropyridin-3-yl)-2-(1-(fluoromethyl)-2-oxabicyclo[2.1.1]hexan-4-yl)-2H-pyrazolo[3,4-b]pyridine-5-carboxamide], the IC50 on IRAK4 was found to be 4 nM. The efflux ratio at 120 min, 1 μM on MDR1 is 2.26.
Turning to `CC[C@H](C)Oc1nc2nn(C34COC(CF)(C3)C4)cc2cc1C(=O)Nc1cccn(C2CC2)c1=O` [Example 21, (S)-6-(sec-butoxy)-N-(1-cyclopropyl-2-oxo-1,2-dihydropyridin-3-yl)-2-(1-(fluoromethyl)-2-oxabicyclo[2.1.1]hexan-4-yl)-2H-pyrazolo[3,4-b]pyridine-5-carboxamide], the IC50 at IRAK4 amounted to 1.1 nM. The efflux ratio at 120 min, 1 μM on MDR1 amounted to 3.33.
Taken in the same sequence, the figures for `CC(C)Oc1nc2nn(C34COC(C)(C3)C4)cc2cc1C(=O)Nc1cccn([C@@H]2CC2(C)C)c1=O` [Example 22, (R)—N-(1-(2,2-dimethylcyclopropyl)-2-oxo-1,2-dihydropyridin-3-yl)-6-isopropoxy-2-(1-methyl-2-oxabicyclo[2.1.1]hexan-4-yl)-2H-pyrazolo[3,4-b]pyridine-5-carboxamide] were 27 nM and 1.03.
Turning to `CC(C)Oc1nc2nn(C34COC(C)(C3)C4)cc2cc1C(=O)Nc1cccn([C@H]2CC2(C)C)c1=O` [Example 23, (S)—N-(1-(2,2-dimethylcyclopropyl)-2-oxo-1,2-dihydropyridin-3-yl)-6-isopropoxy-2-(1-methyl-2-oxabicyclo[2.1.1]hexan-4-yl)-2H-pyrazolo[3,4-b]pyridine-5-carboxamide], the IC50 at IRAK4 is 1.3 nM. Besides, the efflux ratio at 120 min, 1 μM on MDR1 came out at 1.15.
Take `CC(C)Oc1cc2nn(C34COC(CF)(C3)C4)cc2cc1C(=O)Nc1cccn([C@@H]2C[C@@H]2F)c1=O` [Example 53, N-(1-((1R,2S)-2-fluorocyclopropyl)-2-oxo-1,2-dihydropyridin-3-yl)-2-(1-(fluoromethyl)-2-oxabicyclo[2.1.1]hexan-4-yl)-6-isopropoxy-2H-indazole-5-carboxamide]: the IC50 at IRAK4 was determined as 9 nM. In addition, on MDR1, the efflux ratio at 120 min, 1 μM was 6.21.
For `COCC12CC(n3cc4cc(C(=O)Nc5cccn([C@@H]6C[C@H]6F)c5=O)c(OC5CCC5)cc4n3)(CO1)C2` [Example 57, 6-cyclobutoxy-N-(1-((1R,2R)-2-fluorocyclopropyl)-2-oxo-1,2-dihydropyridin-3-yl)-2-(1-(methoxymethyl)-2-oxabicyclo[2.1.1]hexan-4-yl)-2H-indazole-5-carboxamide] the same measures were 1.7 nM and 2.39.
